# Biological target: Phosphoribosylglycinamide formyltransferase (Escherichia coli) (UniProt P08179)
# Experiment: In vitro inhibitory activity against Glycinamide ribonucleotide transformylase (GAR Tfase) following 30 min pre-incubation at 250 uM concentration
# Chain of Phosphoribosylglycinamide formyltransferase (Escherichia coli) (P08179 whole entry, looked up): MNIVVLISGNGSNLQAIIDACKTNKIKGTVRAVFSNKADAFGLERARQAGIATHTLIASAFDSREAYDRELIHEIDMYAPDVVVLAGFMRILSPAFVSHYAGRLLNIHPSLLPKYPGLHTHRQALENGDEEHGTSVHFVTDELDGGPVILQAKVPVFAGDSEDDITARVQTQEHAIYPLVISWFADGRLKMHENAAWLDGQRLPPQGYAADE
row,Structure (SMILES),inhibition [%]
1,COC(=O)c1ccc(CN(CCCc2c(N)nc(N)nc2O)c2cc(F)cc(F)c2[N+](=O)[O-])cc1,5
2,COC(=O)c1ccc(CN(CCCc2c(N)nc(N)nc2O)c2cc(F)c([N+](=O)[O-])cc2[N+](=O)[O-])cc1,9
3,Nc1nc(N)c(CCCNc2cc(F)ccc2[N+](=O)[O-])c(O)n1,69
4,COC(=O)c1ccc(CN(CCc2c(N)nc(N)nc2O)c2cc(F)ccc2[N+](=O)[O-])cc1,43
5,COC(=O)c1ccc(CN(CCc2c(N)nc(N)nc2O)c2cc(F)cc(F)c2[N+](=O)[O-])cc1,9
6,Nc1nc(N)c(CCCNc2cc(F)c([N+](=O)[O-])cc2[N+](=O)[O-])c(O)n1,73
7,COC(=O)c1ccc(CN(CCc2c(N)nc(N)nc2O)c2cc(F)c(F)cc2[N+](=O)[O-])cc1,3
8,Nc1nc(N)c(CCCNc2cc(F)c(F)cc2[N+](=O)[O-])c(O)n1,82
9,COC(=O)c1ccc(CN(CCCc2c(N)nc(N)nc2O)c2cc(F)c(F)cc2[N+](=O)[O-])cc1,33
10,COC(=O)c1ccc(CN(CCCc2c(N)nc(N)nc2O)c2ccc([N+](=O)[O-])c(F)c2F)cc1,57
11,COC(=O)c1ccc(CN(CCc2c(N)nc(N)nc2O)c2ccc([N+](=O)[O-])c(F)c2F)cc1,60
12,Nc1nc(N)c(CCCNc2cc(F)cc(F)c2[N+](=O)[O-])c(O)n1,70
13,COC(=O)c1ccc(CN(CCc2c(N)nc(N)nc2O)c2cc(F)c([N+](=O)[O-])cc2[N+](=O)[O-])cc1,24
14,COC(=O)c1ccc(CN(CCCc2c(N)nc(N)nc2O)c2cc(F)ccc2[N+](=O)[O-])cc1,41
